Data on two molecules can be found in US6514970B1, “Urotensin-II receptor antagonists” (SmithKline Beecham Corporation, priority 1999, dated 2003).

Molecules are shown by their SMILES.

The subject of one experiment is human and rat GPR-14. As to the kind of experiment: Radioligand binding ([125I] h-U-II, HEK-293 cell membranes). The note with it: [125I] h-U-II binding to HEK-293 membranes with cloned GPR-14; species not given. Here is the method:
HEK-293 cell membranes containing stable cloned human and rat GPR-14 (20 ug/assay) were incubated with 200 pM [125I] h-U-II (200 Ci/mmol^−1 in the presence of increasing concentrations of test compounds in DMSO (0.1 nM to 10 uM), in a final incubation volume of 200 ul (20 mM Tris-HCl, 5 mM MgCl2). Incubation was done for 30 minutes at room temperature followed by filtration GF/B filters with Brandel cell harvester. ^125I labeled U-II binding was quantitated by gamma counting. Nonspecific binding was defined by ^125I U-II binding in the presence of 100 nM of unlabeled human U-II. Analysis of the data was performed by nonlinear least square fitting.

For the next experiment, the system named is rat-isolated aorta. The note with it: cited from earlier work.

Take `CN(C)CCCOc1ccc(CN2CC[C@H](NC(=O)[C@H](Cc3ccccc3)NC(=O)c3ccc(Br)cc3)C2)cc1` [Example 15]: the Ki in the experiment with human and rat GPR-14 came out at 390 nM.

`CC(C)[C@H](NC(=O)[C@@H]1CSSC[C@H](NC(=O)[C@H](CC(=O)O)NC(=O)[C@@H]2CCCN2C(=O)[C@@H](NC(=O)[C@@H](N)CCC(=O)O)[C@@H](C)O)C(=O)N[C@@H](Cc2ccccc2)C(=O)N[C@@H](Cc2c[nH]c3ccccc23)C(=O)N[C@@H](CCCCN)C(=O)N[C@@H](Cc2ccc(O)cc2)C(=O)N1)C(=O)O` [Human Urotensin-II]: the contractile activity entry with rat-isolated aorta was “most potent contractile agonist identified to date”.

By Ki is commonly meant a dissociation constant, usually derived from enzyme kinetics or from competition with a known ligand. A lower Ki goes with tighter binding.
